pIC50: −log10 of the molar value. Where a SMILES comes first, the peptide text is derived from it. The star is where a group is joined. Cbz = O=C(OCc1ccccc1)*
Key:
Drosophila melanogaster = details: cited from earlier work
[1] = system: mNotch1ΔE fused to an HiBiT tag; test: HiBit reporter assay; type: cell-based, mouse; details: 24 h, 14-point dose-response; Supplemental Fig. 8D,G
Method: The Notch1ΔE construct used to generate the Notch reporter cell line (see above) was first cloned in frame into the pBiT3.2-C [TK/HiBiT/Blast] Vector (Promega) and then stably introduced into HEK293T wild type cells, using Lipofectamine transfection, as described. Analogous to the Notch reporter cell line, Blasticidin was used as a selection marker (0.1 mg/ml) and stable cell lines with robust luciferase signals were generated. […] A clone (#D2) with an empty HiBit vector stably integrated was used as control.
20 µl containing 4,000 cells were seeded on 384-well pre-spotted compound plates (Greiner, cat #781080). Cells were incubated for 24 h and viability was determined using CellTiter-Fluor (Promega, cat # G6080), following the manufacturer’s instructions. Next, cells were subjected to the HiBit assay according to the manufacturer’s instructions (Promega, cat # N3030). Prior to cell lysis, the tissue culture plates were allowed to cool down to room temperate. Fluorescence and luminescence signals were recorded using a SpectraMax i3 (Molecular devices) and signals were read at different time-points to determine optimal signal stability. Cells cultivated only with DMSO were used as a reference to determine effects of compounds. MG132, Bafilomycin A1 and the GSI RO4929097 served as additional controls. Celastrol was used to determine the assay window, and a minimum of two technical replicates were measured per assay.

Notch signalling [2] = test: Notch reporter assay (12xCSL firefly luciferase / renilla luciferase, HEK293T Notch1ΔE reporter cell line clone #A1-11); type: cell-based; details: 24 h, unit from Fig. 2 legend
γ-secretase complex = γ-secretase complex (Homo sapiens, UniProt P49768); test: APP-C99 counter assay (GSI reporter assay); type: cell-based; details: for 3p-DR in % of DMSO counter: APP-C99 counter assay
Summary of the method: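 Cells transfected with APP-C99 firefly luciferase reporter plus renilla normalization plasmid, seeded 24 h later onto compound plates and cultured 24 h. Dual luciferase read in triplicate per concentration; IC50 from variable-slope log(inhibitor) fit, with AUC also calculated from dose–response curves.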

Notch signalling [3] = test: Notch reporter assay (12xCSL firefly luciferase / renilla luciferase, HEK293T Notch1ΔE reporter cell line clone #A1-11); type: cell-based; design: Confirmation screen: unit not given here; details: for inhibitor ratio in % of DMSO in 3 point DR: 3-point DR confirmation screen, Notch reporter assay
Summary of the method: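 Compounds at two-fold concentration in 10 µl medium were brought to one-fold by adding 10 µl holding 4000 Notch reporter cells (clone #A1-11) per well of a 384-well plate. After 24 h, Promega dual-GLO firefly and renilla luciferase were read on a SpectraMaxi3. Dose-response curves were fitted with a log(inhibitor) vs. response variable-slope model.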

[4] = system: Notch1 ICD-induced mouse model of T-ALL; design: method as in PMID 37648673; details: cited from earlier work
[5] = system: T-ALL and breast cancer cell lines; test: Growth inhibition in tumour cell lines (panel, cell lines not named singly); type: cell-based; details: overview in comparison to compound C; Supplemental Fig. 9
Source text: We next investigated whether compounds A-E affected growth and viability of cell lines from T-cell acute lymphoblastic leukaemia (T-ALL) and breast cancer, two tumour types in which elevated Notch signalling has been implicated in tumorigenesis. […] When testing analogues of compounds B and C, five of the seven B analogues and one of the two C analogues produced dose–response curves and IC50s, which however were higher compared to the original hits (Supplemental Fig. 5A; IC50s are presented in Supplemental Table 6).
Compounds were spotted on white 384-well tissue culture plates (Greiner, cat #781080) using an Echo 525 Acoustic liquid handler (Labcyte). Cells were grown to 80% confluence, detached if required, counted and 20 µl containing 2000–4000 cells per well was then seeded in each well and cultivated for three (4,000 cells seeded) and six days (2,000 cells seeded). […] Luciferase activity (reading out metabolic activity) was determined using the CellTiter-Glo 2.0 kit (CTG, Promega, cat #G9242) following the manufacturer’s instructions and luminescence was measured on a SpectraMaxi3 or Varioscan plate reader (Molecular Devices, Thermofisher).

[6] = 10 µM, sheet conf vs counter 10 µM
[7] = 25 µM, sheet "conf vs counter 25 µM", same values given as % of DMSO in sheet "3p-DR in % of DMSO counter"
[8] = 10 µM, sheet conf vs counter 10 µM, same values as 3-point DR confirmation screen
[9] = 25 µM, Notch reporter 3-point dose-confirmation assay, sheet "conf vs counter 25 µM"
[10] = overview in comparison to compound C, Supplemental Fig. 9

For `Cc1c(C(=O)O)[nH]c(=O)[nH]c1=O` [5-methyl orotate], the “phenotype after chemical DHODH inhibition” value (Drosophila melanogaster) is given as “phenocopied Notch mutations”.
In the case of `CO/C1=C\C(C)=C\[C@@H](C)[C@@H](O)[C@@H](C)C/C(C)=C/C=C/[C@H](OC)[C@@H]([C@@H](C)[C@@H](O)[C@H](C)[C@@]2(O)C[C@@H](O)[C@H](C)[C@@H](C(C)C)O2)OC1=O` [Bafilomycin A1, reference compound], the HiBiT luciferase signal [1] was “increased the HiBiT signal”.
With `Cc1ccc(NC(=O)c2cnc(SCc3ccc(F)cc3)n(C)c2=O)cc1C` [CBK287674] the “Primary screen at 10 µM (Notch reporter signal)” value (from here on “Primary screen at 10 µM”) (Notch signalling [2]) was 65.6 % of DMSO, the “3p-DR in % of DMSO counter” value (γ-secretase complex; 10µM) was 109.0 % of DMSO and the “Counter screen (Hek APP-C99)” value (γ-secretase complex; [6]) was 108.9. The “3p-DR in % of DMSO counter” value (γ-secretase complex; 25µM) was 82.2 % of DMSO, the “Counter screen (Hek APP-C99)” value (γ-secretase complex; [7]) was 82.2 and the “3p-DR in % of DMSO counter” value (γ-secretase complex; 1,25µM) was 116.8 % of DMSO. The “inhibitor ratio in % of DMSO in 3 point DR” value (“inhibitor ratio in % of DMSO” below) (Notch signalling [3]; 10µM) was 73.8 % of DMSO, the Confirmation screen (Notch signalling [3]; [8]) was 73.8 and the “inhibitor ratio in % of DMSO” value (Notch signalling [3]; 25µM) was 47.2 % of DMSO. The Confirmation screen (Notch signalling [3]; [9]) was 47.2 and the “inhibitor ratio in % of DMSO” value (Notch signalling [3]; 1,25µM) was 99.3 % of DMSO.
With `COc1ccc(-c2noc([C@@H]3Cc4[nH]cnc4CN3C(=O)CCC(=O)O)n2)cc1` [CBK288967] the “Primary screen at 10 µM” value (Notch signalling [2]) was 51.7 % of DMSO, the “3p-DR in % of DMSO counter” value (γ-secretase complex; 10µM) was 62.4 % of DMSO and the “Counter screen (Hek APP-C99)” value (γ-secretase complex; [6]) was 62.4. The “3p-DR in % of DMSO counter” value (γ-secretase complex; 25µM) was 22.0 % of DMSO, the “Counter screen (Hek APP-C99)” value (γ-secretase complex; [7]) was 22.0 and the “3p-DR in % of DMSO counter” value (γ-secretase complex; 1,25µM) was 131.3 % of DMSO. The “inhibitor ratio in % of DMSO” value (Notch signalling [3]; 10µM) was 51.6 % of DMSO, the Confirmation screen (Notch signalling [3]; [8]) was 51.6 and the “inhibitor ratio in % of DMSO” value (Notch signalling [3]; 25µM) was 56.4 % of DMSO. For the same compound, the Confirmation screen (Notch signalling [3]; [9]) was 56.4 and the “inhibitor ratio in % of DMSO” value (Notch signalling [3]; 1,25µM) was 72.4 % of DMSO.
For `c1ccc2oc(CN3Cc4nc[nH]c4C[C@H]3c3nc(-c4ccc5c(c4)OCO5)no3)cc2c1` [CBK288998], the “Primary screen at 10 µM” value (Notch signalling [2]) was 68.4 % of DMSO, the “3p-DR in % of DMSO counter” value (γ-secretase complex; 10µM) was 93.1 % of DMSO and the “Counter screen (Hek APP-C99)” value (γ-secretase complex; [6]) was 93.1. The “3p-DR in % of DMSO counter” value (γ-secretase complex; 25µM) was 78.1 % of DMSO, the “Counter screen (Hek APP-C99)” value (γ-secretase complex; [7]) was 78.1 and the “3p-DR in % of DMSO counter” value (γ-secretase complex; 1,25µM) was 112.2 % of DMSO. For the same compound, the “inhibitor ratio in % of DMSO” value (Notch signalling [3]; 10µM) was 72.8 % of DMSO, the Confirmation screen (Notch signalling [3]; [8]) was 72.8 and the “inhibitor ratio in % of DMSO” value (Notch signalling [3]; 25µM) was 66.3 % of DMSO. For the same compound, the Confirmation screen (Notch signalling [3]; [9]) was 66.3 and the “inhibitor ratio in % of DMSO” value (Notch signalling [3]; 1,25µM) was 89.6 % of DMSO.
With `C[C@@H]1C(=O)O[C@H]2[C@H]1CC[C@@]1(C)Cc3sc(NC(=O)CCC(=O)O)nc3[C@@H](C)[C@H]21` [CBK289429] the “Primary screen at 10 µM” value (Notch signalling [2]) was 35.5 % of DMSO, the “3p-DR in % of DMSO counter” value (γ-secretase complex; 10µM) was 23.7 % of DMSO and the “Counter screen (Hek APP-C99)” value (γ-secretase complex; [6]) was 23.6. For the same compound, the “3p-DR in % of DMSO counter” value (γ-secretase complex; 25µM) was 12.4 % of DMSO, the “Counter screen (Hek APP-C99)” value (γ-secretase complex; [7]) was 12.4 and the “3p-DR in % of DMSO counter” value (γ-secretase complex; 1,25µM) was 76.3 % of DMSO. The “inhibitor ratio in % of DMSO” value (Notch signalling [3]; 10µM) was 38.0 % of DMSO, the Confirmation screen (Notch signalling [3]; [8]) was 38.0 and the “inhibitor ratio in % of DMSO” value (Notch signalling [3]; 25µM) was 25.1 % of DMSO. For the same compound, the Confirmation screen (Notch signalling [3]; [9]) was 25.1 and the “inhibitor ratio in % of DMSO” value (Notch signalling [3]; 1,25µM) was 77.4 % of DMSO.
In the case of `C[C@@H]1C(=O)O[C@H]2[C@H]1CC[C@@]1(C)Cc3sc(NC(=O)CN(C)C)nc3[C@@H](C)[C@H]21` [CBK289431], the “Primary screen at 10 µM” value (Notch signalling [2]) was 41.2 % of DMSO, the “3p-DR in % of DMSO counter” value (γ-secretase complex; 10µM) was 58.4 % of DMSO and the “Counter screen (Hek APP-C99)” value (γ-secretase complex; [6]) was 58.4. For the same compound, the “3p-DR in % of DMSO counter” value (γ-secretase complex; 25µM) was 61.0 % of DMSO, the “Counter screen (Hek APP-C99)” value (γ-secretase complex; [7]) was 61.0 and the “3p-DR in % of DMSO counter” value (γ-secretase complex; 1,25µM) was 71.4 % of DMSO. For the same compound, the “inhibitor ratio in % of DMSO” value (Notch signalling [3]; 10µM) was 39.6 % of DMSO, the Confirmation screen (Notch signalling [3]; [8]) was 39.6 and the “inhibitor ratio in % of DMSO” value (Notch signalling [3]; 25µM) was 35.0 % of DMSO. The Confirmation screen (Notch signalling [3]; [9]) was 35.0 and the “inhibitor ratio in % of DMSO” value (Notch signalling [3]; 1,25µM) was 40.7 % of DMSO.
In the case of `O=C(O)c1c2c(nc3ccccc13)C(=Cc1ccc3c(c1)OCCO3)CC2` [CBK297479], the “Primary screen at 10 µM” value (Notch signalling [2]) was 18.5 % of DMSO, the “3p-DR in % of DMSO counter” value (γ-secretase complex; 10µM) was 16.4 % of DMSO and the “Counter screen (Hek APP-C99)” value (γ-secretase complex; [6]) was 16.4. The “3p-DR in % of DMSO counter” value (γ-secretase complex; 25µM) was 13.7 % of DMSO, the “Counter screen (Hek APP-C99)” value (γ-secretase complex; [7]) was 13.7 and the “3p-DR in % of DMSO counter” value (γ-secretase complex; 1,25µM) was 29.7 % of DMSO. For the same compound, the “inhibitor ratio in % of DMSO” value (Notch signalling [3]; 10µM) was 15.2 % of DMSO, the Confirmation screen (Notch signalling [3]; [8]) was 15.2 and the “inhibitor ratio in % of DMSO” value (Notch signalling [3]; 25µM) was 7.0 % of DMSO. For the same compound, the Confirmation screen (Notch signalling [3]; [9]) was 7.0 and the “inhibitor ratio in % of DMSO” value (Notch signalling [3]; 1,25µM) was 22.8 % of DMSO.
For `COc1cccc(OCC2CCCN(C(=O)CCc3cnn(C)c3)C2)c1` (stereo not shown) [CBK306931], the “Primary screen at 10 µM” value (Notch signalling [2]) was 46.7 % of DMSO, the “3p-DR in % of DMSO counter” value (γ-secretase complex; 10µM) was 59.0 % of DMSO and the “Counter screen (Hek APP-C99)” value (γ-secretase complex; [6]) was 59.0. The “3p-DR in % of DMSO counter” value (γ-secretase complex; 25µM) was 46.1 % of DMSO, the “Counter screen (Hek APP-C99)” value (γ-secretase complex; [7]) was 46.1 and the “3p-DR in % of DMSO counter” value (γ-secretase complex; 1,25µM) was 61.2 % of DMSO. For the same compound, the “inhibitor ratio in % of DMSO” value (Notch signalling [3]; 10µM) was 57.0 % of DMSO, the Confirmation screen (Notch signalling [3]; [8]) was 57.0 and the “inhibitor ratio in % of DMSO” value (Notch signalling [3]; 25µM) was 34.9 % of DMSO. For the same compound, the Confirmation screen (Notch signalling [3]; [9]) was 34.9 and the “inhibitor ratio in % of DMSO” value (Notch signalling [3]; 1,25µM) was 63.9 % of DMSO.
With `CC(C)C[C@@H](C=O)NC(=O)[C@H](CC(C)C)NC(=O)[C@H](CC(C)C)NC(=O)OCc1ccccc1` [MG132, reference compound] (Cbz-Leu-Leu-Leu-aldehyde) the HiBiT luciferase signal [1] was “increased the HiBiT signal”.
In the case of `Cc1c(-c2ccc(-c3ccccc3F)cc2)nc2ccc(F)cc2c1C(=O)O` [brequinar], the “outcome in Notch1 ICD-induced mouse model of T-ALL” value [4] is given as “curative”.
With BAY2402234 [reference compound] the viability assay [5] was “reduced”, the APP assay (γ-secretase complex; [10]) was “higher potency” and the pIC50 (Notch signalling [3]; expanded dose range 500 nM-25 pM, Fig. 7E, read-out: IC50, Notch reporter activity) was 7.96. For the same compound, the Notch assay (Notch signalling [3]; [10]) was “higher potency”.
